The source of these data is patent US9636418B2 (priority 2013, dated 2017).

Common to all, as to test: cell-based
In one test the target is hNav1.5 (Homo sapiens, UniProt Q14524). As to conditions: IonWorks Quattro; read-out: IC50 Nav1.5. A general note: Patch clamp records ionic current or voltage across a cell membrane.
The next test addresses hNav1.3 (Homo sapiens, UniProt Q9NY46). As to conditions: IonWorks Quattro; read-out: IC50 Nav1.3.
The target in the next test is hNav1.4 (Homo sapiens, UniProt P35499). The conditions noted are these: for IC50: IonWorks Quattro, read-out: IC50 Nav1.4; for Nav1.4/Nav1.7: ratio of IonWorks Quattro IC50 values.
A further test addresses hNav1.7 (Homo sapiens, UniProt Q15858). As to conditions: IonWorks Quattro; read-out: IC50 Nav1.7.

“And” between values parts separate entries of the source, which are not always exact repeats. Identical values can stand only once.

hNav1.3, sequence (Q9NY46 whole entry): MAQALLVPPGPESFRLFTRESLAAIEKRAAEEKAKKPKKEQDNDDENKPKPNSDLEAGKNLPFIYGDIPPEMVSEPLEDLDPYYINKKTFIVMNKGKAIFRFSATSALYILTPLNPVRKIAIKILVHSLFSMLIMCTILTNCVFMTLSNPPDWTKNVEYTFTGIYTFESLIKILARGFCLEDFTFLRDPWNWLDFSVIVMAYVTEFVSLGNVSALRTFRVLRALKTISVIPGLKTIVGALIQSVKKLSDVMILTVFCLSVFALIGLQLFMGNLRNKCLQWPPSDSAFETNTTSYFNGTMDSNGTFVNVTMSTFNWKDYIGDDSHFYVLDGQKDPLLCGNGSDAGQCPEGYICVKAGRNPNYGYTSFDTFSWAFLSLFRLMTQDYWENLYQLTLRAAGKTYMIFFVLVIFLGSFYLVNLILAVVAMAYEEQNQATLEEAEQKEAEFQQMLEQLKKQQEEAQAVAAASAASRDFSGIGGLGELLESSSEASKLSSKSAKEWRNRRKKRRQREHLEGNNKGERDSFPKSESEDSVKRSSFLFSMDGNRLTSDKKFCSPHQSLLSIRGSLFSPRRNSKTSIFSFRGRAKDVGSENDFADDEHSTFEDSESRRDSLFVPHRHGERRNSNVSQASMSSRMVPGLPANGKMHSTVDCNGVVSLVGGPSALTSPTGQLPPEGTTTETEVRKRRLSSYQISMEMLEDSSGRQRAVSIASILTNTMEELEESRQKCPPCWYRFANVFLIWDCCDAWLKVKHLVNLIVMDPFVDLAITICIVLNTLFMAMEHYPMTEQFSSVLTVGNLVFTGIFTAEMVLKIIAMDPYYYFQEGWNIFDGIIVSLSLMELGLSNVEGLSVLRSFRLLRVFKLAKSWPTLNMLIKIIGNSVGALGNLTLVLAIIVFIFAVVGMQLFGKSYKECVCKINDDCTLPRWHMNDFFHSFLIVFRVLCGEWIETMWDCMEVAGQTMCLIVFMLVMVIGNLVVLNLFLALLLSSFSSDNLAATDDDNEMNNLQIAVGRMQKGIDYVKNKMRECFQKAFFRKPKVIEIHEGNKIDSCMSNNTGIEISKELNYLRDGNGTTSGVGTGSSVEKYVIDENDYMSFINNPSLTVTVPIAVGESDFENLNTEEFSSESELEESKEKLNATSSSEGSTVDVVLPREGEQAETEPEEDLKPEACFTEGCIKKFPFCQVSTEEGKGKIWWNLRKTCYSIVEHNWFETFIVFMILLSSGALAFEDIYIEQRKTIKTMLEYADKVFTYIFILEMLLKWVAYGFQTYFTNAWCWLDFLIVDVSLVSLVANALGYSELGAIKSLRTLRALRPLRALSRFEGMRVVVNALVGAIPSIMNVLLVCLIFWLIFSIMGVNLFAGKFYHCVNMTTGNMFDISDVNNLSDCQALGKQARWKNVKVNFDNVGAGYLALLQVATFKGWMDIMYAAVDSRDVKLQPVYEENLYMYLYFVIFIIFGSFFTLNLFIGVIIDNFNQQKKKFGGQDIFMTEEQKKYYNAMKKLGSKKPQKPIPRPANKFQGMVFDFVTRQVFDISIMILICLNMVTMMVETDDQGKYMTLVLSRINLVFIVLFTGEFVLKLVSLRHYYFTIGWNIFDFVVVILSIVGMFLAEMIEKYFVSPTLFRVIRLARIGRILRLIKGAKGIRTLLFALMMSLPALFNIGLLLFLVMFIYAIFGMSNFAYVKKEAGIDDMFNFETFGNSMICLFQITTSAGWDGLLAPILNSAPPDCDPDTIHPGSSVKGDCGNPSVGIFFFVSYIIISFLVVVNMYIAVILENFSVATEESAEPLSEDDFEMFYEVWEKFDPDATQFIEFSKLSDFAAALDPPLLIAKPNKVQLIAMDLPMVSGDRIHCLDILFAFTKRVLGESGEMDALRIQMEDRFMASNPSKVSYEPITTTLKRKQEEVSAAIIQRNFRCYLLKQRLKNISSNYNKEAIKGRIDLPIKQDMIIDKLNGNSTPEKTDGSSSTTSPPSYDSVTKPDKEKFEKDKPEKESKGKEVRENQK
hNav1.5, sequence (Q14524 whole entry): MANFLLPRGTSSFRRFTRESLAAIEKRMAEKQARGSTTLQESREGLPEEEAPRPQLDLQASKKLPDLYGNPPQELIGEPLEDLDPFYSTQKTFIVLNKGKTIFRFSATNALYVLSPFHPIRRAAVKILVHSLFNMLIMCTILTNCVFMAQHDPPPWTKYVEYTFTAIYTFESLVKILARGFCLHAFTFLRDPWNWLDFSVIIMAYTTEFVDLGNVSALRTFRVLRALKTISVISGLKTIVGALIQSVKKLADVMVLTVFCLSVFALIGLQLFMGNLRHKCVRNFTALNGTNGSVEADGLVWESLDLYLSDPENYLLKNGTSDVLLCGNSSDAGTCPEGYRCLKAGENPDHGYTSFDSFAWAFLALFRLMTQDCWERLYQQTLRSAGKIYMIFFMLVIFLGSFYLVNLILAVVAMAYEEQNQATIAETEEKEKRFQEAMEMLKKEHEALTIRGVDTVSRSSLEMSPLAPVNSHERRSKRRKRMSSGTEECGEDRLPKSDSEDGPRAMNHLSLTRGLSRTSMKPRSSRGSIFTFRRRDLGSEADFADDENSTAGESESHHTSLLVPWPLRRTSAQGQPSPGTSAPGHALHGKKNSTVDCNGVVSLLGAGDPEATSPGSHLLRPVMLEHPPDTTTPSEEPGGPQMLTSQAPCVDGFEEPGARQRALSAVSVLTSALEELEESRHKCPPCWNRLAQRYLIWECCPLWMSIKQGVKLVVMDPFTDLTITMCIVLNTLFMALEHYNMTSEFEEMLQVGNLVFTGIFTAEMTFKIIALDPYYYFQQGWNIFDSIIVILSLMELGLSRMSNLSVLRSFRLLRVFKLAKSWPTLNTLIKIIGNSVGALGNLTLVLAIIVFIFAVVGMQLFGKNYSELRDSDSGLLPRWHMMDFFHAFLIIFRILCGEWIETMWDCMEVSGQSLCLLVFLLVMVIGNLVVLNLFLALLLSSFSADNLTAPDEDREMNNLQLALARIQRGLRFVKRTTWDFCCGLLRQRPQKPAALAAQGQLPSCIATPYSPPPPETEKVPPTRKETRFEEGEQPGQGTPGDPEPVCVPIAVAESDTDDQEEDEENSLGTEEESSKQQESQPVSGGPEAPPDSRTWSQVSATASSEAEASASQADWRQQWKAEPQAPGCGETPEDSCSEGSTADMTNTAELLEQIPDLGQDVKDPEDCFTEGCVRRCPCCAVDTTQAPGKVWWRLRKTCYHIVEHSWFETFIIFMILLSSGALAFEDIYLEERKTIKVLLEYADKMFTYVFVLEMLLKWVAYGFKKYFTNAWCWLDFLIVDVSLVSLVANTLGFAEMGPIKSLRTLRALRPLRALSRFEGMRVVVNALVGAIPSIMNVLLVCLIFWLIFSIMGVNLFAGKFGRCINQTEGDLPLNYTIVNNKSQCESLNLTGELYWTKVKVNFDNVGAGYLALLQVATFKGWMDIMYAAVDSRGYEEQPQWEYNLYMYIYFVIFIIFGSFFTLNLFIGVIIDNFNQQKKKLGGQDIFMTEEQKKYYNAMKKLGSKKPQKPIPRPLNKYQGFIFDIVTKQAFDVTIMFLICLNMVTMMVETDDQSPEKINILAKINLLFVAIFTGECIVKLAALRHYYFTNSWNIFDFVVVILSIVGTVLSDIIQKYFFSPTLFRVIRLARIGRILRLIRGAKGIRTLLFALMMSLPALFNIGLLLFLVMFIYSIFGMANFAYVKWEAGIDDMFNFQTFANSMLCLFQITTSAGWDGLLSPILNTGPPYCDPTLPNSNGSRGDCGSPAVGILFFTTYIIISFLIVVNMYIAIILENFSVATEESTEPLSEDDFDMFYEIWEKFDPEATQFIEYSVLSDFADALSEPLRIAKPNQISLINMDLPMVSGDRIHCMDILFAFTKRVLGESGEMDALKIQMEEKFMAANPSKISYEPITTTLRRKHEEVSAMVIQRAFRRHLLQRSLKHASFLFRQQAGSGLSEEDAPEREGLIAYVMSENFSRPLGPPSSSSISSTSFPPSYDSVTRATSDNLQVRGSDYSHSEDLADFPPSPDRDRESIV

The term IC50 denotes the concentration at which inhibition is half-maximal. For `CC[C@H](C)[C@H](NC(=O)[C@@H](NC(=O)[C@H](CCCCN)NC(=O)[C@H](CCCNC(=N)N)NC(=O)[C@@H]1CSSC[C@@H]2NC(=O)[C@H](C)NC(=O)[C@H](CCCNC(=N)N)NC(=O)[C@H](CCCCN)NC(=O)[C@H](CO)NC(=O)[C@H](CC(=O)O)NC(=O)[C@@H]3CSSC[C@H](NC(=O)[C@H](CCC(=O)O)NC(=O)[C@H](CC(C)C)NC(=O)CNC(=O)[C@H](CCC(=O)O)NC(=O)[C@H](CSSC[C@H](NC(=O)[C@@H](N)Cc4cn(CCCOCCOCCOCCOCCOCCOCCOCCOCCOCCOCCN)nn4)C(=O)N[C@@H](CCC(N)=O)C(=O)N[C@@H](CCCCN)C(=O)N[C@@H](Cc4c[nH]c5ccccc45)C(=O)N[C@@H](CCSC)C(=O)N[C@@H](Cc4c[nH]c5ccccc45)C(=O)N[C@@H]([C@@H](C)O)C(=O)N3)NC2=O)C(=O)N[C@@H](CCCCN)C(=O)N[C@@H](CC(C)C)C(=O)N[C@@H](Cc2c[nH]c3ccccc23)C(=O)N1)[C@@H](C)CC)C(N)=O` [compound 165], the IC50 on hNav1.5 was 15.1 µM; at hNav1.3, over 5 µM; on hNav1.4, over 5 µM; on hNav1.7, 0.18 µM. Also, the Nav1.4/Nav1.7 on hNav1.4 is given as 28.
As to `CC[C@H](C)[C@H](NC(=O)[C@@H](NC(=O)[C@H](CCCCN)NC(=O)[C@H](CCCNC(=N)N)NC(=O)[C@@H]1CSSC[C@@H]2NC(=O)[C@H](C)NC(=O)[C@H](CCCNC(=N)N)NC(=O)[C@H](CCCCN)NC(=O)[C@H](CO)NC(=O)[C@H](CC(=O)O)NC(=O)[C@@H]3CSSC[C@H](NC(=O)[C@H](CCC(=O)O)NC(=O)[C@H](CC(C)C)NC(=O)CNC(=O)[C@H](Cc4cn(CCCOCCOCCOCCOCCOCCOCCOCCOCCOCCOCCN)nn4)NC(=O)[C@H](CSSC[C@H](NC(=O)[C@@H](N)Cc4ccc(O)cc4)C(=O)N[C@@H](CCC(N)=O)C(=O)N[C@@H](CCCCN)C(=O)N[C@@H](Cc4c[nH]c5ccccc45)C(=O)N[C@@H](CCSC)C(=O)N[C@@H](Cc4c[nH]c5ccccc45)C(=O)N[C@@H]([C@@H](C)O)C(=O)N3)NC2=O)C(=O)N[C@@H](CCCCN)C(=O)N[C@@H](CC(C)C)C(=O)N[C@@H](Cc2c[nH]c3ccccc23)C(=O)N1)[C@@H](C)CC)C(N)=O` [compound 178], the IC50 is 15.1 µM on hNav1.5, over 5 µM on hNav1.3, over 5 µM on hNav1.4 and 0.18 µM on hNav1.7. At hNav1.4, the Nav1.4/Nav1.7 was 28.
Consider `CC[C@H](C)[C@H](NC(=O)[C@@H](NC(=O)[C@H](CCCCN)NC(=O)[C@H](CCCNC(=N)N)NC(=O)[C@@H]1CSSC[C@@H]2NC(=O)[C@H](C)NC(=O)[C@H](CCCNC(=N)N)NC(=O)[C@H](CCCCN)NC(=O)[C@H](CO)NC(=O)[C@H](CC(=O)O)NC(=O)[C@@H]3CSSC[C@H](NC(=O)[C@H](CCC(=O)O)NC(=O)[C@H](CC(C)C)NC(=O)CNC(=O)[C@H](CCC(=O)O)NC(=O)[C@H](CSSC[C@H](NC(=O)[C@@H](N)Cc4ccc(O)cc4)C(=O)N[C@@H](CCC(N)=O)C(=O)N[C@@H](CCCCN)C(=O)N[C@@H](Cc4c[nH]c5ccccc45)C(=O)N[C@@H](CCSC)C(=O)N[C@@H](Cc4c[nH]c5ccccc45)C(=O)N[C@@H]([C@@H](C)O)C(=O)N3)NC2=O)C(=O)N[C@@H](CCCCN)C(=O)N[C@@H](Cc2cn(CCCOCCOCCOCCOCCOCCOCCOCCOCCOCCOCCN)nn2)C(=O)N[C@@H](Cc2c[nH]c3ccccc23)C(=O)N1)[C@@H](C)CC)C(N)=O` [compound 183], for which the IC50 on hNav1.5 is 19.2 µM; at hNav1.3, over 5 µM; on hNav1.4 it was over 5 µM; at hNav1.7, at least 5 µM. In addition, the Nav1.4/Nav1.7 on hNav1.4 stood at 1.
Turning to `CC[C@H](C)[C@H](NC(=O)[C@H](Cc1cn(CCCOCCOCCOCCOCCOCCOCCOCCOCCOCCOCCN)nn1)NC(=O)[C@H](CCCCN)NC(=O)[C@H](CCCNC(=N)N)NC(=O)[C@@H]1CSSC[C@@H]2NC(=O)[C@H](C)NC(=O)[C@H](CCCNC(=N)N)NC(=O)[C@H](CCCCN)NC(=O)[C@H](CO)NC(=O)[C@H](CC(=O)O)NC(=O)[C@@H]3CSSC[C@H](NC(=O)[C@H](CCC(=O)O)NC(=O)[C@H](CC(C)C)NC(=O)CNC(=O)[C@H](CCC(=O)O)NC(=O)[C@H](CSSC[C@H](NC(=O)[C@@H](N)Cc4ccc(O)cc4)C(=O)N[C@@H](CCC(N)=O)C(=O)N[C@@H](CCCCN)C(=O)N[C@@H](Cc4c[nH]c5ccccc45)C(=O)N[C@@H](CCSC)C(=O)N[C@@H](Cc4c[nH]c5ccccc45)C(=O)N[C@@H]([C@@H](C)O)C(=O)N3)NC2=O)C(=O)N[C@@H](CCCCN)C(=O)N[C@@H](CC(C)C)C(=O)N[C@@H](Cc2c[nH]c3ccccc23)C(=O)N1)C(N)=O` [compound 187], the IC50 was 15.4 µM at hNav1.5, over 5 µM on hNav1.3, over 5 µM on hNav1.4 and 1.77 µM on hNav1.7. Further, the Nav1.4/Nav1.7 on hNav1.4 is given as 3.
Take `CC[C@H](C)[C@H](NC(=O)[C@H](Cc1ccc(O)cc1)NC(=O)[C@H](CCCCN)NC(=O)[C@H](CCCNC(=N)N)NC(=O)[C@@H]1CSSC[C@@H]2NC(=O)[C@H](C)NC(=O)[C@H](CCCNC(=N)N)NC(=O)[C@H](CCCCN)NC(=O)[C@H](CO)NC(=O)[C@H](CC(=O)O)NC(=O)[C@@H]3CSSC[C@H](NC(=O)[C@H](CCC(=O)O)NC(=O)[C@H](CC(C)C)NC(=O)CNC(=O)[C@H](CCC(=O)O)NC(=O)[C@H](CSSC[C@H](NC(=O)[C@@H](N)Cc4ccc(O)cc4)C(=O)N[C@@H](CCC(N)=O)C(=O)N[C@@H](CCCCN)C(=O)N[C@@H](Cc4ccc(O)cc4)C(=O)N[C@@H](CCSC)C(=O)N[C@@H](Cc4c[nH]c5ccccc45)C(=O)N[C@@H]([C@@H](C)O)C(=O)N3)NC2=O)C(=O)N[C@@H](CCCCN)C(=O)N[C@@H](CC(C)C)C(=O)N[C@@H](Cc2c[nH]c3ccccc23)C(=O)N1)C(N)=O` [compound 194]: the 50% inhibitory concentration (IC50) is over 5 µM on hNav1.5; over 5 µM on hNav1.3; over 5 µM on hNav1.4; 0.91 µM and 2.5 µM at hNav1.7.
Turning to `CC[C@H](C)[C@H](NC(=O)[C@H](Cc1ccc(O)cc1)NC(=O)[C@H](CCCCN)NC(=O)[C@H](CCCNC(=N)N)NC(=O)[C@@H]1CSSC[C@@H]2NC(=O)[C@H](C)NC(=O)[C@H](CCCNC(=N)N)NC(=O)[C@H](CCCCN)NC(=O)[C@H](CO)NC(=O)[C@H](CC(=O)O)NC(=O)[C@@H]3CSSC[C@H](NC(=O)[C@H](CCC(=O)O)NC(=O)[C@H](CC(C)C)NC(=O)CNC(=O)[C@H](CCC(=O)O)NC(=O)[C@H](CSSC[C@H](NC(=O)[C@@H](N)Cc4ccc(O)cc4)C(=O)N[C@@H](CCC(N)=O)C(=O)N[C@@H](CCCCN)C(=O)N[C@@H](C(C)C)C(=O)N[C@@H](CCSC)C(=O)N[C@@H](Cc4c[nH]c5ccccc45)C(=O)N[C@@H]([C@@H](C)O)C(=O)N3)NC2=O)C(=O)N[C@@H](CCCCN)C(=O)N[C@@H](CC(C)C)C(=O)N[C@@H](Cc2c[nH]c3ccccc23)C(=O)N1)C(N)=O` [compound 195], the IC50 at hNav1.5 is over 5 µM; on hNav1.3, over 5 µM; on hNav1.4 it was over 5 µM; on hNav1.7, 3.8 µM.
